Assays:
[1] = target: tryptophanase of Bacteroides tetaiotaomicron (Bacteroides thetaiotaomicron, UniProt Q8A7N2); experiment: Tryptophanase enzyme inhibitory activity (LDH-coupled NADH loss); assay type: biochemical; details: 10 mM L-tryptophan, 30 min preincubation at 37° C., absorbance at 340 nm
Procedure: Tryptophanase inhibitory activity was evaluated by a method using lactate dehydrogenase (LDH). The reaction time-dependent reduction in NADH conjugated with the enzymatic reaction, with LDH, of pyruvic acid produced through the enzymatic reaction of L-tryptophan as a substrate with tryptophanase, was measured with a spectrophotometer (Phillips-R S et al., Biochemistry, 23, 6228-6234 (1984)). Enzyme inhibitory activity obtained without adding a test compound (by adding DMSO alone) in the presence of tryptophanase was used as a control. As the enzyme, tryptophanase of Bacteroides tetaiotaomicron (Genbank accession number: HC914434.1) was used.
A test compound solution was prepared by dissolving each test compound in DMSO at concentrations (from 30 mM to 30 nM at 10-fold common ratio). LDH, NADH and L-tryptophan were dissolved, using distilled water, respectively to concentrations of 80 units/mL, 10 mM and 50 mM. Bacteroides tryptophanase was prepared to 30 mg/mL. A potassium phosphate buffer was used as the buffer.
A reaction solution A was dispensed at 284.8 μL per well into a 96-well plate, and the test compound solution was added at 3.2 μL per well to obtain a final concentration of 1/100 (reaction solution B). The reaction solution B was incubated at 37° C. for 30 minutes, L-tryptophan was added thereto at 32 μL per well to obtain a final concentration of […] (reaction solution C), and the enzyme reaction was performed at 37° C. over 30 minutes with absorbance at 340 nm measured for monitoring the NADH loss. Based on the NADH loss, the tryptophanase inhibitory activity of the compound was evaluated.

Bacteroides = experiment: Indole production suppressing effect in viable bacterium; assay type: cell-based; details: 5 mM L-Tryptophan assay medium, anaerobic, indole in culture supernatant, read-out: Bacteroides Indole Production Inhibitory Activity(IC50)
Procedure: The effect of a tryptophanase inhibitory compound to suppress indole production from a viable bacterium can be evaluated through the following operation.
When E. coli (Eschelicia coli) is used as a strain known to produce indole, the strain is cultured in an LB medium at 37° C. for 12 to 18 hours under anaerobic conditions, and then, suspended in an assay medium (5 mM L-Tryptophan/PBS(+)/25 mM HEPES (pH8)) in such a manner as to obtain O.D. of about 0.3. When bacteroides is used, the strain is cultured in a modified GAM medium at 37° C. for 12 to 18 hours under anaerobic conditions, and then suspended in an assay medium (5 mM L-Tryptophan/PBS(+)/25 mM HEPES (pH8)) in such a manner as to obtain O.D. of about 1.1. The thus obtained viable bacterial suspension prepared to have a final concentration of a compound of 1 μM to 10 mM is dispensed at 200 μL per well into a 96-well plate and cultured at 37° C. for 2 to 4 hours under anaerobic conditions, O.D., an ATP concentration (that can be quantitatively determined by using BacTiter-Glo (Promega Corporation)) and an indole concentration in the culture supernatant (that can be quantitatively determined by utilizing Ehrlich reaction) are measured. The effect of the tryptophanase inhibitory compound to suppress indole production from a viable bacterium can be evaluated depending on the degree of lowering of the indole concentration in the culture supernatant. It can be checked whether or not the effect is derived from a function other than tryptophanase inhibition, such as a bactericidal function or a bacterial growth inhibitory function, depending on lowering of the O.D. or reduction in the ATP concentration or by performing a generally practiced antibacterial activity test (a MIC (minimum growth inhibition concentration) test) using levofloxacin or the like as a positive control.
The activities of inhibiting indole production of the compounds of the respective examples shown in Table 13 were measured by the above-described method using Bacteroides to evaluate the effect of inhibiting indole production.

plasma indoxyl sulfate = experiment: Effect of reducing plasma indoxyl sulfate concentration in mice; assay type: in vivo; details: oral gavage, plasma 6 hours after L-tryptophan
Procedure: An effect of a tryptophanase inhibitory compound to reduce plasma indoxyl sulfate concentration in a mouse can be evaluated through the following operation.
After fasting male BALB/c mice overnight, a tryptophanase inhibitory compound dissolved or suspended at a concentration of 0.01 to 10 mg/mL in 0.5% methylcellulose (MC) solution used as a solvent and 0.5% MC solution are orally administered by gavage at a volume of 10 mL/kg respectively to test compound groups and to a solvent control group. 30 minutes after the administration of the test compound or the solvent, L-tryptophan, that is, a substrate of tryptophanase, is orally administered by gavage at a dose of 1 to 3 g/kg. The L-tryptophan is suspended in a 0.5% tragacanth solution. For 12 hours after the administration of the L-tryptophan, blood is collected over time from a tail vein by using a hematocrit tube. The thus obtained blood is centrifuged at 11,000 rpm for 5 minutes to collect plasma, and the indoxyl sulfate concentration in the plasma is measured singly by liquid chromatography (fluorescence detection) or its combination with a mass spectrometer used subsequently. Plasma indoxyl sulfate concentration in the test compound group against the plasma indoxyl sulfate concentration in the solvent control group is calculated as, for example, a ratio of the area under a curve of the indoxyl sulfate concentration, and thus, the efficacy of each compound in vivo can be compared.
The indoxyl sulfate concentrations in plasma obtained by using the compounds of the respective examples shown in Table 14 below were measured by the above-described method to evaluate the plasma indoxyl sulfate suppressing effect.

tryptophanase of Bacteroides tetaiotaomicron, sequence (Q8A7N2 entry or part of it, change not shown): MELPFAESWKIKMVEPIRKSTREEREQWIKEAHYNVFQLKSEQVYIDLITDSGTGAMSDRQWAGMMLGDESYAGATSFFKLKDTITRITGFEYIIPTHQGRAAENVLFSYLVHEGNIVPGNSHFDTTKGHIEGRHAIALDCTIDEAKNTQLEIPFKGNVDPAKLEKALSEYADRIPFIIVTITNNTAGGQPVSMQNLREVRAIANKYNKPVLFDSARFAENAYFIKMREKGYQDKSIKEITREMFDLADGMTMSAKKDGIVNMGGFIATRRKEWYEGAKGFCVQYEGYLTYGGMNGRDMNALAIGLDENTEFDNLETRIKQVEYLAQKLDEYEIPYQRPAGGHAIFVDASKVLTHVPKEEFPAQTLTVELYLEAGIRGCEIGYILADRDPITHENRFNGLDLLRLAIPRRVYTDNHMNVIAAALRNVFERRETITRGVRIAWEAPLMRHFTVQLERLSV

| Compound | IC50 [1] [nM] | IC50 (Bacteroides) [nM] | Plasma Indoxyl Sulfate Reduction Effect in Male BALB/c Mouse (Indoxyl sulfate reduction effect in plasma 6 hours after administration of L-tryptophan: ED75-, mg/kg) (plasma indoxyl sulfate) [mg/kg] |
| --- | --- | --- | --- |
| CCC(CC)(NC(=O)c1ccc(N)cc1)C(=O)O [Compound of Example 1, 2-[(4-Aminobenzoyl)amino]-2-ethylbutanoic Acid] | 27100 | – | – |
| CCC(CC)(NC(=O)c1ccc(N)c(C)c1)C(=O)O [Compound of Example 2, 2-[(4-Amino-3-methylbenzoyl)amino]-2-ethylbutanoic Acid] | 7800 | – | – |
| CCC(CC)(NC(=O)c1cc(C)c(N)c(C)c1)C(=O)O [Compound of Example 3, 2-[(4-Amino-3,5-dimethylbenzoyl)amino]-2-ethylbutanoic Acid] | 8000 | – | – |
| CCC(NC(=O)c1ccc(N)c(C)c1)(C(=O)O)C1CC1 (stereo not shown) [Compound of Example 4, 2-[(4-Amino-3-methylbenzoyl)amino]-2-cyclopropyl butanoic Acid] | 1700 | – | – |
| CCC(NC(=O)c1ccc(N)c(Cl)c1)(C(=O)O)C1CC1 (stereo not shown) [Compound of Example 5, 2-[(4-Amino-3-chlorobenzoyl)amino]-2-cyclopropyl butanoic Acid] | 1000 | – | – |
| CCC(CC)(NC(=O)c1cc(Cl)c(N)cc1OC)C(=O)O [Compound of Example 6, 2-[(4-Amino-5-chloro-2-methoxybenzoyl)amino]-2-ethylbutanoic Acid] | 200 | < 3000 | 1 |
| CCC(CC)(NC(=O)c1cc(F)c(N)c(Cl)c1)C(=O)O [Compound of Example 7, 2-[(4-Amino-3-chloro-5-fluorobenzoyl)amino]-2-ethylbutanoic Acid] | 6900 | – | – |
| CCOc1cc(N)c(Cl)cc1C(=O)NC(C)(C)C(=O)O [Compound of Example 8, N-(4-Amino-5-chloro-2-ethoxybenzoyl)-2-methylalanine] | 1300 | – | – |
| CC(C)Oc1cc(N)c(Cl)cc1C(=O)NC(C)(C)C(=O)O [Compound of Example 9, N-[4-Amino-5-chloro-2-(propan-2-yloxy)benzoyl)-2-methylalanine] | 390 | – | – |
| CC[C@@](C)(NC(=O)c1cc(Cl)c(N)cc1OC)C(=O)O [Compound of Example 10, (−)-N-(4-Amino-5-chloro-2-methoxybenzoyl)-D-isovaline] | 1530 | < 3000 | 1 |
| CCOc1cc(N)c(Cl)cc1C(=O)N[C@](C)(CC)C(=O)O [Compound of Example 11, (−)-N-(4-Amino-5-chloro-2-ethoxybenzoyl)-D-isovaline] | 90 | < 3000 | 1 |
| CC[C@](C)(NC(=O)c1cc(Cl)c(N)cc1OC)C(=O)O [Compound of Example 12, (+)-N-(4-Amino-5-chloro-2-methoxybenzoyl)-L-isovaline] | 310 | – | – |
| CCOc1cc(N)c(Cl)cc1C(=O)N[C@@](C)(CC)C(=O)O [Compound of Example 13, (+)-N-(4-Amino-5-chloro-2-ethoxybenzoyl)-L-isovaline] | 80 | – | – |
| CCCOc1cc(N)c(Cl)cc1C(=O)NC(C)(C)C(=O)O [Compound of Example 14, N-(4-Amino-5-chloro-2-propoxybenzoyl)-2-methylalanine] | 200 | – | – |
| CC[C@@](C)(NC(=O)c1cc(Br)c(N)cc1OC)C(=O)O [Compound of Example 15, (−)-N-(4-Amino-5-bromo-2-methoxybenzoyl)-D-isovaline] | 770 | < 3000 | 1 |
| CC[C@@](C)(NC(=O)c1cc(I)c(N)cc1OC)C(=O)O [Compound of Example 16, (−)-N-(4-Amino-5-iodo-2-methoxybenzoyl)-D-isovaline] | 360 | < 3000 | 1 |
| CC[C@](C)(NC(=O)c1cc(Br)c(N)cc1OC)C(=O)O [Compound of Example 17, (+)-N-(4-Amino-5-bromo-2-methoxybenzoyl)-L-isovaline] | 140 | – | – |
| CC[C@](C)(NC(=O)c1cc(I)c(N)cc1OC)C(=O)O [Compound of Example 18, (+)-N-(4-Amino-5-iodo-2-methoxybenzoyl)-L-isovaline] | 100 | – | – |
| CCOc1cc(N)c(Br)cc1C(=O)N[C@@](C)(CC)C(=O)O [Compound of Example 19, (+)-N-(4-Amino-5-bromo-2-ethoxybenzoyl)-L-isovaline] | 60 | – | – |
| CCOc1cc(N)c(I)cc1C(=O)N[C@@](C)(CC)C(=O)O [Compound of Example 20, (+)-N-(4-Amino-2-ethoxy-5-iodobenzoyl)-L-isovaline] | 50 | – | – |
| CCOc1cc(N)c(Br)cc1C(=O)N[C@](C)(CC)C(=O)O [Compound of Example 21, (−)-N-(4-Amino-5-bromo-2-ethoxybenzoyl)-D-isovaline] | 100 | < 3000 | 1 |
| CCOc1cc(N)c(I)cc1C(=O)N[C@](C)(CC)C(=O)O [Compound of Example 22, (−)-N-(4-Amino-2-ethoxy-5-iodobenzoyl)-D-isovaline] | 80 | – | – |
| CC[C@@](C)(NC(=O)c1cc(C(F)(F)F)c(N)cc1OC)C(=O)O [Compound of Example 26, (−)-N-(4-Amino-2-methoxy-5-(trifluoromethyl)benzoyl)-D-isovaline] | 840 | – | – |
| CC[C@@](C)(NC(=O)c1cc(C)c(N)cc1OC)C(=O)O [Compound of Example 28, N-(4-Amino-2-methoxy-5-methylbenzoyl)-D-isovaline] | 3130 | – | – |
| CCOc1cc(N)c(C#N)cc1C(=O)N[C@](C)(CC)C(=O)O [Compound of Example 29, (−)-N-(4-Amino-5-cyano-2-ethoxybenzoyl)-D-isovaline] | 20 | – | – |
| CC[C@@](C)(NC(=O)c1cc(F)c(N)cc1OC)C(=O)O [Compound of Example 30, (−)-N-(4-Amino-5-fluoro-2-methoxybenzoyl)-D-isovaline] | 5610 | – | – |
| CC[C@@](C)(NC(=O)c1cc(Cl)c(N)cc1OC(F)F)C(=O)O [Compound of Example 31, (−)-N-[4-Amino-5-chloro-2-(difluoromethoxy)benzoyl]-D-isovaline] | 110 | – | – |
| CCCOc1cc(N)c(F)cc1C(=O)NC(C)(C)C(=O)O [Compound of Example 32, N-(4-Amino-5-fluoro-2-propoxybenzoyl)-2-methylalanine] | 540 | – | – |
